In US20180244611A1, “Modulators of the Cystic Fibrosis Transmembrane Conductance Regulator Protein and Methods of Use” (AbbVie S.à.r.l., priority 2017, published 2018):

Legend:
[1] = biological target: T1, F508delCFTR (Homo sapiens, UniProt P13569, DEL508-508); test: Cell Surface Expression-Horse Radish Peroxidase (CSE-HRP) assay, test compound without co-corrector; format: cell-based; conditions: for Emax: maximum at any tested concentration, normalized to positive control, without co-corrector; for EC50: test compound without co-corrector;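 for Emax: percent of on-plate 2 µM positive control corrector response over DMSO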
T1 construct: expressed in transfected cells; host or cells: CFBE41o- human lung-derived epithelial cells (CFBE41o-F508delCFTR-HRP), doxycycline-inducible
T1 sequence (P13569 with tags, fused parts or gaps DEL508-508): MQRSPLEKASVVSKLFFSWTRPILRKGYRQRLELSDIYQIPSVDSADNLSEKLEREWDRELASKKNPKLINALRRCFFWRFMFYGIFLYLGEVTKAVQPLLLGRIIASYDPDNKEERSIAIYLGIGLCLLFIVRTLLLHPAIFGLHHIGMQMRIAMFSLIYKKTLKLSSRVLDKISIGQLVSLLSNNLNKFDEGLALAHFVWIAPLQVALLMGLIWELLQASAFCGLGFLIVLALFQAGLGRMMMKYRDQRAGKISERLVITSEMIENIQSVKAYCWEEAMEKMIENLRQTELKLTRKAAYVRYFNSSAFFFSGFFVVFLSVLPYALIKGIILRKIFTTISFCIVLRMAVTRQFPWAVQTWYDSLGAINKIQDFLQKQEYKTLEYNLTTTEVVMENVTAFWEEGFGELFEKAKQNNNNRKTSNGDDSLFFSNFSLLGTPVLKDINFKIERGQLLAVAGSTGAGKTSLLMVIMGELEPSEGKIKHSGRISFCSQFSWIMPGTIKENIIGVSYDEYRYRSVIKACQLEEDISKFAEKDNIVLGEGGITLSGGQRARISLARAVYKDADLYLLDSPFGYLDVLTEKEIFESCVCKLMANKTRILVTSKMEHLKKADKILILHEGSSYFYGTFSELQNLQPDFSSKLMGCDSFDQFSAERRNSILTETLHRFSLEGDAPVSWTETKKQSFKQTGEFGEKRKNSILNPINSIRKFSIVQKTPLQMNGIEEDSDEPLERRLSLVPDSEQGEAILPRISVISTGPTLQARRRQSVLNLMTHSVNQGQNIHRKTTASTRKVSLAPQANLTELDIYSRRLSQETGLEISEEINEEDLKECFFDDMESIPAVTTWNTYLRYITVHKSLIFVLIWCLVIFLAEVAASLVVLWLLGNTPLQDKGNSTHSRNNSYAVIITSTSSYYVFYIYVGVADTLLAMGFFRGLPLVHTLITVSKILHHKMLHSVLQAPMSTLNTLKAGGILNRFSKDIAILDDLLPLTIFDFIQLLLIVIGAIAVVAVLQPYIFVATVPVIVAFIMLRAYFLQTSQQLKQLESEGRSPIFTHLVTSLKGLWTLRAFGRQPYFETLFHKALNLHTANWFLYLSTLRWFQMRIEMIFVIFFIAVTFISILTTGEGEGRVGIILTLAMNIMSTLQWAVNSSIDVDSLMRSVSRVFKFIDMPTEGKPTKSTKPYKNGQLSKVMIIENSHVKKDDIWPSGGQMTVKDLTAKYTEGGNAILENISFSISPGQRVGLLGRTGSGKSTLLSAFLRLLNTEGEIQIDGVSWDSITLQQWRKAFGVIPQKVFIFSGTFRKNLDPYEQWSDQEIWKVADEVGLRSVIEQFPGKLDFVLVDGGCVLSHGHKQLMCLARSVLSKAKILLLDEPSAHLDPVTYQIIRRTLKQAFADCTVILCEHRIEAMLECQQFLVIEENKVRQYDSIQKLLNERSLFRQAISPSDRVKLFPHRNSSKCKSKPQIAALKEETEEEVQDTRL
Summary of the method: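 CFBE41o- cells expressing F508delCFTR with HRP in the fourth exofacial loop, induced with 0.5 μg/mL doxycycline for 72 h at 37° C, then exposed to compound alone for 18-24 h at 33° C, 8-point 3-fold series from 20 μM. Surface HRP read by luminol luminescence, normalized to positive corrector control versus DMSO; EC50 from variable-slope sigmoidal fit of three replicate plates.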

[2] = biological target: T1, F508delCFTR; test: Cell Surface Expression-Horse Radish Peroxidase (CSE-HRP) assay, test compound with co-corrector; format: cell-based; conditions: with 2 μM co-corrector; for Maximum % activity (with co-corrector): maximum at any tested concentration, normalized to positive control;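 for Maximum % activity (with co-corrector): percent of 2 µM positive control corrector over DMSO; co-corrector is that same compound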
Summary of the method: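 CFBE41o- cells expressing F508delCFTR with HRP in the fourth exofacial loop, induced with 0.5 μg/mL doxycycline for 72 h, then treated 18-24 h at 33° C. with compound (8 points, top 20 μM, 3-fold) plus 2 μM co-corrector. Surface HRP read by luminol luminescence; activity normalised to positive control, EC50 from variable-slope sigmoidal fit.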

COc1ccc(Br)c2c1C(C(=O)NS(=O)(=O)c1cccc3c(O)cccc13)CC2 (centres unmarked) [Example I-105, 4-bromo-N-(5-hydroxynaphthalene-1-sulfonyl)-7-methoxy-2,3-dihydro-1H-indene-1-carboxamide]
Emax [1]: ≥ 150%
EC50 [1]: 3 to 10 µM
Maximum % activity (with co-corrector) [2]: +++ (≥350)
EC50 [2]: < 3 µM

COc1ccc(C)c2c1CC[C@H]2C(=O)NS(=O)(=O)c1cccc2ccccc12 [Example I-108, (1R)-4-methoxy-7-methyl-N-(naphthalene-1-sulfonyl)-2,3-dihydro-1H-indene-1-carboxamide]
Emax [1]: ≥ 150%
EC50 [1]: 3 to 10 µM
Maximum % activity (with co-corrector) [2]: +++ (≥350)
EC50 [2]: 3 to 10 µM

COc1ccc(C)c2c1CC[C@@H]2C(=O)NS(=O)(=O)c1cccc2ccccc12 [Example I-109, (1S)-4-methoxy-7-methyl-N-(naphthalene-1-sulfonyl)-2,3-dihydro-1H-indene-1-carboxamide]
Emax [1]: ≥ 150%
EC50 [1]: 3 to 10 µM
Maximum % activity (with co-corrector) [2]: +++ (≥350)
EC50 [2]: < 3 µM

COc1ncc(Br)c2c1C(C(=O)NS(=O)(=O)c1cccc3ccccc13)CC2 (centres unmarked) [Example I-110, 4-bromo-1-methoxy-N-(naphthalene-1-sulfonyl)-6,7-dihydro-5H-cyclopenta[c]pyridine-7-carboxamide]
Emax [1]: ≥ 150%
EC50 [1]: 3 to 10 µM
Maximum % activity (with co-corrector) [2]: +++ (≥350)
EC50 [2]: 3 to 10 µM

COc1ncc(C2CCC2)c2c1C(C(=O)NS(=O)(=O)c1cccc3ccccc13)CC2 (centres unmarked) [Example I-111, 4-cyclobutyl-1-methoxy-N-(naphthalene-1-sulfonyl)-6,7-dihydro-5H-cyclopenta[c]pyridine-7-carboxamide]
Emax [1]: ≥ 150%
EC50 [1]: 3 to 10 µM
Maximum % activity (with co-corrector) [2]: +++ (≥350)
EC50 [2]: 3 to 10 µM

COc1ncc(Cl)c2c1C(C(=O)NS(=O)(=O)c1cccc3ccccc13)CC2 (centres unmarked) [Example I-112, 4-chloro-1-methoxy-N-(naphthalene-1-sulfonyl)-6,7-dihydro-5H-cyclopenta[c]pyridine-7-carboxamide]
Emax [1]: ≥ 150%
EC50 [1]: 3 to 10 µM
Maximum % activity (with co-corrector) [2]: +++ (≥350)
EC50 [2]: 3 to 10 µM

COc1ncc(Br)c2c1C(C(=O)NS(=O)(=O)c1cccc3ccccc13)CCC2 (centres unmarked) [Example I-113, 4-bromo-1-methoxy-N-(naphthalene-1-sulfonyl)-5,6,7,8-tetrahydroisoquinoline-8-carboxamide]
Emax [1]: ≥ 150%
EC50 [1]: 3 to 10 µM
Maximum % activity (with co-corrector) [2]: +++ (≥350)
EC50 [2]: < 3 µM

COc1ccc(C2CCC2)c2c1C(C(=O)NS(=O)(=O)c1cccc3ncccc13)C2 (centres unmarked) [Example I-114, 2-cyclobutyl-5-methoxy-N-(quinoline-5-sulfonyl)bicyclo[4.2.0]octa-1,3,5-triene-7-carboxamide]
Emax [1]: ≥ 150%
EC50 [1]: < 3 µM
Maximum % activity (with co-corrector) [2]: +++ (≥350)
EC50 [2]: < 3 µM

COc1ncc(Br)c2c1[C@@H](C(=O)NS(=O)(=O)c1cccc3ccccc13)CCC2 [Example I-115, (8S)-4-bromo-1-methoxy-N-(naphthalene-1-sulfonyl)-5,6,7,8-tetrahydroisoquinoline-8-carboxamide]
Emax [1]: ≥ 150%
EC50 [1]: 3 to 10 µM
Maximum % activity (with co-corrector) [2]: +++ (≥350)
EC50 [2]: < 3 µM

COc1ncc(Br)c2c1[C@H](C(=O)NS(=O)(=O)c1cccc3ccccc13)CCC2 [Example I-116, (8R)-4-bromo-1-methoxy-N-(naphthalene-1-sulfonyl)-5,6,7,8-tetrahydroisoquinoline-8-carboxamide]
Emax [1]: ≥ 150%
EC50 [1]: < 3 µM
Maximum % activity (with co-corrector) [2]: +++ (≥350)
EC50 [2]: < 3 µM

COc1ccc(C(F)(F)F)c2c1[C@@H](C(=O)NS(=O)(=O)c1cccc3nc(C)ccc13)CC2 [Example I-117, (1S)-7-methoxy-N-(2-methylquinoline-5-sulfonyl)-4-(trifluoromethyl)-2,3-dihydro-1H-indene-1-carboxamide]
Emax [1]: ≥ 150%
EC50 [1]: 3 to 10 µM
Maximum % activity (with co-corrector) [2]: +++ (≥350)
EC50 [2]: 3 to 10 µM
